Drawing on patent US9120749B2, “Quinoline derivatives and MELK inhibitors containing the same” (ONCOTHERAPY SCIENCE, INC., priority 2010, dated 2015), this text covers IC50 for twelve molecules.

Structures are written as SMILES. Structures can show the parent of a compound that is named as a salt. Where two headings read alike, the source gives them in different places.

For assay [1], the system named is 22Rv1 cells. Put plainly: Cell-based assay: anti-proliferative activity, Cell Counting Kit-8, 72 hours (22Rv1). For orientation: Formazan colour is commonly taken as a measure of viable cells.
Assay [2] concerns T47D cells. Description: Cell-based assay: anti-proliferative activity, Cell Counting Kit-8, 72 hours (T47D). In outline: (§1)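 First, lysates underwent western blotting with anti-MELK antibody to establish expression. Next, cells went into 96-well plates. Then candidate inhibitors were added. Finally, viability was determined by CCK-8 at 72 h and IC50 computed.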
Assay [3] concerns DU4475 cells. Description: Cell-based assay: anti-proliferative activity, Cell Counting Kit-8, 72 hours (DU4475).
In assay [4] the test system is HT-1197 cells. Put plainly: Cell-based assay: anti-proliferative activity, Cell Counting Kit-8, 72 hours (HT-1197, negative control without MELK expression). The following applies: HT1197 cells (negative control, no MELK expression), 72 hours. The method in brief: as §1
The subject of assay [5] is A549 cells. Description: Cell-based assay: anti-proliferative activity, Cell Counting Kit-8, 72 hours (A549). To be noted: 72 hours. In outline: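 Cell Counting Kit-8 read-out of A549 growth after 72 hours of inhibitor exposure, cells plated in 96-well format. Values reported as IC50.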
Assay [6] addresses MELK (Homo sapiens, UniProt Q14680). Description: Kinase assay: MELK activity, phosphorylation of FITC-labeled histone H3 peptide measured by IMAP fluorescence polarization. The class given is biochemical. To be noted: read-out: IC50 (μM) (kinase assay). In outline: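 Kinase reactions ran with or without test compound (final DMSO 1%) on a fluorescein-tagged H3 peptide. Progressive binding solution was added to terminate them. After a half-hour room-temperature incubation, polarization was measured.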
In general terms: In fluorescence polarisation assays a small probe gives low polarisation when free and higher when bound to something large.

The mark [7] stands for this setting: MELK kinase assay, IMAP fluorescence polarization, 50 micro-M ATP.

Chain of MELK (Q14680 whole entry, looked up): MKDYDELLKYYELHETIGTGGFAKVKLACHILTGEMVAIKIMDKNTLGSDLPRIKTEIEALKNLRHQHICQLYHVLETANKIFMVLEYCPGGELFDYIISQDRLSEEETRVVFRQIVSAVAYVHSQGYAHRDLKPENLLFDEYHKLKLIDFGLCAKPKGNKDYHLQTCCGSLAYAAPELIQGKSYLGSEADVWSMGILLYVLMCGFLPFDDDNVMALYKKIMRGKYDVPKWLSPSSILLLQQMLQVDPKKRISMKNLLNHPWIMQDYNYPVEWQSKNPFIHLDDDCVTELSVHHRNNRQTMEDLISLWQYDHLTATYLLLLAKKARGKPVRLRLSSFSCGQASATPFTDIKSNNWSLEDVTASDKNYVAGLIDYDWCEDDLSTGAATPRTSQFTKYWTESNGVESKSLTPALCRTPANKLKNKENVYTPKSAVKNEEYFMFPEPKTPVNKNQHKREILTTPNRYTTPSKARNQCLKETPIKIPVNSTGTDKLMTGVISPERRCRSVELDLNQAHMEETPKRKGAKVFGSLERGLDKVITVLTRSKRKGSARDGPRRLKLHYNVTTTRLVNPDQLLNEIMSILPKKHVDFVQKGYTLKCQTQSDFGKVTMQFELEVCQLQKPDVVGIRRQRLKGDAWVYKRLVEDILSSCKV

As usually defined, the IC50 is the point on the concentration scale where inhibition reaches its midpoint. Turning to `CC(=O)c1cnc2ccc(-c3cc(F)c(O)c(Cl)c3)cc2c1NC1CCC(C(=O)N2CCN(C)CC2)CC1` (stereo not drawn) [Example 849, 1-(6-(3-chloro-5-fluoro-4-hydroxyphenyl)-4-(4-(4-methylpiperazine-1-carbonyl)cyclohexylamino)quinolin-3-yl)ethanone hydrochloride], the IC50 worked out at 1 µM in assay [1] (Homo sapiens, 22Rv1, 72 h); 0.47 µM in assay [2] (Homo sapiens, T47D, 72 h); 1 µM in assay [3] (Homo sapiens, DU-4475, 72 h); 4.5 µM in assay [4] (Homo sapiens, HT1197, 72 h); 1.3 µM in assay [5] (Homo sapiens, A549, 72 h); 0.018 µM in assay [6] (setting [7]).
Consider `CCN(CC)C[C@H]1CC[C@H](Nc2c(C(C)=O)cnc3ccc(-c4cc(F)c(O)c(Cl)c4)cc23)CC1` [Example 794], for which the IC50 in assay [1] (Homo sapiens, 22Rv1, 72 h) turned out to be 0.094 µM; in assay [2] (Homo sapiens, T47D, 72 h), 0.031 µM; in assay [3] (Homo sapiens, DU-4475, 72 h), 0.074 µM; in assay [4] (Homo sapiens, HT1197, 72 h) it was 0.75 µM; in assay [5] (Homo sapiens, A549, 72 h), 0.077 µM; in assay [6], 0.0056 µM.
Regarding `CC(=O)c1cnc2ccc(-c3cc(Cl)c(O)c(Cl)c3)cc2c1N[C@H]1CC[C@H](CN2CCCC2)CC1` [Example 768, 1-(6-(3,5-dichloro-4-hydroxyphenyl)-4-(trans-4-(pyrrolidin-1-ylmethyl)cyclohexylamino)quinolin-3-yl)ethanone hydrochloride], the 50% inhibitory concentration (IC50) in assay [1] (hydrochloride) turned out to be 0.11 µM; in assay [2] (72 hours, hydrochloride) it was 0.11 µM; in assay [3] (hydrochloride), 0.07 µM; in assay [4] (hydrochloride) it was 28 µM; in assay [5] (hydrochloride), 0.13 µM; in assay [6] (hydrochloride) it was 0.0015 µM.
For `CC(=O)c1cnc2ccc(-c3cc(Cl)c(O)c(Cl)c3)cc2c1N[C@H]1CCC[C@@H](CN(C)C)C1` [Example 827, 1-(6-(3,5-dichloro-4-hydroxyphenyl)-4-((1S,3R)-3-((dimethylamino)methyl)cyclohexylamino)quinolin-3-yl)ethanone hydrochloride], the 50% inhibitory concentration (IC50) was found to be 0.43 µM in assay [1] (Homo sapiens, 22Rv1, 72 h); 0.49 µM in assay [2] (Homo sapiens, T47D, 72 h); 0.2 µM in assay [3] (Homo sapiens, DU-4475, 72 h); 5.9 µM in assay [4] (Homo sapiens, HT1197, 72 h); 0.51 µM in assay [5] (Homo sapiens, A549, 72 h); 0.0033 µM in assay [6] (setting [7]).
With `CC(=O)c1cnc2ccc(-c3cc(Cl)c(O)c(Cl)c3)cc2c1N[C@H]1CC[C@H](CN2CCNCC2)CC1` [Example 772, 1-(6-(3,5-dichloro-4-hydroxyphenyl)-4-((trans-4-(piperazin-1-ylmethyl)cyclohexyl)amino)quinolin-3-yl)ethanone dihydrochloride], the IC50 in assay [1] (Homo sapiens, 22Rv1, 72 h) worked out at 0.14 µM; in assay [2] (Homo sapiens, T47D, 72 h), 0.058 µM; in assay [3] (Homo sapiens, DU-4475, 72 h), 0.076 µM; in assay [4] (Homo sapiens, HT1197, 72 h), 3.2 µM; in assay [5] (Homo sapiens, A549, 72 h), 0.26 µM; in assay [6], 0.0021 µM.
For the molecule `CCN(CC)C[C@H]1CC[C@H](Nc2c(C(C)=O)cnc3ccc(-c4cc(Cl)c(O)c(OC)c4)cc23)CC1` [Example 791, 1-(6-(3-chloro-4-hydroxy-5-methoxyphenyl)-4-(1R,4R)-4-((diethylamino)methyl)cyclohexylamino)quinolin-3-yl)ethanone hydrochloride], the IC50 in assay [1] (Homo sapiens, 22Rv1, 72 h) worked out at 0.49 µM; in assay [2] (Homo sapiens, T47D, 72 h), 0.58 µM; in assay [3] (Homo sapiens, DU-4475, 72 h), 0.43 µM; in assay [4] (Homo sapiens, HT1197, 72 h) it was 9.3 µM; in assay [5] (Homo sapiens, A549, 72 h) it was 0.27 µM; in assay [6] it was 0.0031 µM.
Regarding `COc1cc(-c2ccc3ncc(C(C)=O)c(N[C@H]4CC[C@H](CN5CCCC(N)C5)CC4)c3c2)cc(Cl)c1O` (stereo partly drawn) [Example 809, 1-(4-(1R,4R)-4-((3-aminopiperidin-1-yl)methyl)cyclohexylamino)-6-(3-chloro-4-hydroxy-5-methoxyphenyl)quinolin-3-yl)ethanone hydrochloride], the IC50 in assay [1] (Homo sapiens, 22Rv1, 72 h) was determined as 2.6 µM; in assay [2] (Homo sapiens, T47D, 72 h), 4.6 µM; in assay [3] (Homo sapiens, DU-4475, 72 h), 10 µM; in assay [4] (Homo sapiens, HT1197, 72 h) it was 10 µM; in assay [5] (Homo sapiens, A549, 72 h), 3.1 µM; in assay [6], 0.016 µM.
`CC(=O)c1cnc2ccc(-c3cc(F)c(O)c(Cl)c3)cc2c1N[C@H]1CCC[C@@H](CN2CCN(C)CC2)C1` [Example 832, 1-(6-(3-chloro-5-fluoro-4-hydroxyphenyl)-4-((1S,3R)-3-((4-methylpiperazin-1-yl)methyl)cyclohexylamino)quinolin-3-yl)ethanone hydrochloride]: the concentration for half-maximal inhibition (IC50) in assay [1] (Homo sapiens, 22Rv1, 72 h) is 0.44 µM; in assay [2] (Homo sapiens, T47D, 72 h) it was 0.17 µM; in assay [3] (Homo sapiens, DU-4475, 72 h) it was 0.24 µM; in assay [4] (Homo sapiens, HT1197, 72 h), 0.79 µM; in assay [5] (Homo sapiens, A549, 72 h) it was 0.26 µM; in assay [6] (setting [7]) it was 0.009 µM.
Take `CCC(=O)c1cnc2ccc(-c3cc(F)c(O)c(Cl)c3)cc2c1Nc1ccc(CN(C)C)cc1` [Example 770, 1-(6-(3-chloro-5-fluoro-4-hydroxyphenyl)-4-((4-((dimethylamino)methyl)phenyl)amino)quinolin-3-yl)propan-1-one]: the IC50 in assay [1] (Homo sapiens, 22Rv1, 72 h) worked out at 0.17 µM; in assay [2] (Homo sapiens, T47D, 72 h), 0.074 µM; in assay [3] (Homo sapiens, DU-4475, 72 h), 0.062 µM; in assay [4] (Homo sapiens, HT1197, 72 h), 0.84 µM; in assay [5] (Homo sapiens, A549, 72 h), 0.11 µM; in assay [6] it was 0.015 µM.
Take `CCC(=O)c1cnc2ccc(-c3cc(Cl)c(O)c(Cl)c3)cc2c1Nc1ccc(N2CCCC(N)C2)nc1` (stereo not drawn) [Example 824, 1-(4-(6-(3-aminopiperidin-1-yl)pyridin-3-ylamino)-6-(3,5-dichloro-4-hydroxyphenyl)quinolin-3-yl)propan-1-one]: the IC50 in assay [1] (Homo sapiens, 22Rv1, 72 h) was determined as 0.026 µM; in assay [2] (Homo sapiens, T47D, 72 h) it was 0.021 µM; in assay [3] (Homo sapiens, DU-4475, 72 h), 0.026 µM; in assay [4] (Homo sapiens, HT1197, 72 h), 0.28 µM; in assay [5] (Homo sapiens, A549, 72 h), 0.036 µM; in assay [6] (setting [7]) it was 0.0016 µM.
With `CCC(=O)c1cnc2ccc(-c3cc(Cl)c(O)c(Cl)c3)cc2c1Nc1ccc(CN(C)C)cc1` [Example 771, 1-(6-(3,5-dichloro-4-hydroxyphenyl)-4-((4-((dimethylamino)methyl)phenyl)amino)quinolin-3-yl)propan-1-one], the IC50 in assay [1] (Homo sapiens, 22Rv1, 72 h) stood at 0.16 µM; in assay [2] (Homo sapiens, T47D, 72 h), 0.072 µM; in assay [3] (Homo sapiens, DU-4475, 72 h), 0.045 µM; in assay [4] (Homo sapiens, HT1197, 72 h) it was 0.72 µM; in assay [5] (Homo sapiens, A549, 72 h), 0.095 µM; in assay [6], 0.0054 µM.
With `CN(C)CCNc1ccc(Nc2c(C(=O)C3CC3)cnc3ccc(-c4cc(Cl)c(O)c(Cl)c4)cc23)cn1` [Example 748, cyclopropyl(6-(3,5-dichloro-4-hydroxyphenyl)-4-(6-(2-(dimethylamino)ethylamino)pyridin-3-ylamino)quinolin-3-yl)methanone hydrochloride], the IC50 in assay [1] (Homo sapiens, 22Rv1, 72 h) was found to be 0.1 µM; in assay [2] (72 hours, hydrochloride), 0.088 µM; in assay [3] (hydrochloride) it was 0.032 µM; in assay [4] (hydrochloride) it was 1.6 µM; in assay [5] (hydrochloride) it was 0.069 µM; in assay [6] (hydrochloride), 0.0026 µM.
